# Several values for one entry are separate records, joined by “and”; a condition that tells them apart may be missing. Identical values can stand only once.
# Test system: men with metastatic castration resistant prostate cancer (mCRPC)
# Test: Study 6: secondary hormone therapy with Compound IV 125 mg, 250 mg or 500 mg in mCRPC/nmCRPC maintained on ADT
# Type: in vivo, human
# Source text: Compound IV, is studied (Study 6) for the proposed indication secondary hormone therapy for metastatic castration resistant prostate cancer (mCRPC), for high risk non-metastatic castration resistant prostate cancer (nmCRPC) or advanced prostate cancer at high risk of progressing to CRPC, or any combination thereof.
# The effect of Compound IV as secondary hormonal therapy that reduces serum PSA and serum free testosterone levels in men with metastatic castration resistant prostate cancer maintained on androgen deprivation therapy is studied. The study assesses the effects of Compound IV on serum PSA response and serum PSA progression in men with mCRPC on ADT with LHRH agonists, LHRH antagonists, or orchidectomy. This study also assesses the VTE risk of lower doses of Compound IV. Secondary endpoints include serum free testosterone levels, adrenal gland androgen precursor production (DHEA and DHEAS levels), progression free survival, and skeletal related events (SRE).
# 75 subjects with castration resistant prostate cancer patients with radiographic evidence of metastatic disease (T any-N any-M1) are enrolled in the study. These subjects have a median life expectancy of less than 20 months, i.e. more serious disease than the other subjects with advanced prostate cancer enrolled in the previous studies. All subjects have been previously treated with androgen deprivation therapy (ADT), have responded to the ADT and currently have a serum PSA >2 ng/mL or >2 ng/mL and representing a 25% increase above the nadir achieved on the ADT. Subjects are maintained on ADT throughout the study.
# Each subject receives daily doses of 125 mg Compound IV, 250 mg Compound IV, or 500 mg Compound IV administered orally, until their serum PSA increases at least 25% and 2 ng/mL from the nadir at two successive serum PSA assessments after initiation of treatment with Compound IV.
# Enrollment into this study is staggered by 1 cycle (30 days) such that the first 25 subjects are enrolled into the 125 mg Compound IV dose arm. These subjects are evaluated for incidence of venous thromboembolic events (VTE). When the last subject in the 125 mg Compound IV dose arm has completed 1 cycle of therapy (30 days) in this dose arm and there is an acceptable incidence rate of VTE in this dose arm at that time (less than 3), enrollment is commenced in the 250 mg Compound IV dose arm. These subjects are evaluated for the incidence of VTE. When all 25 subjects in the 250 mg Compound IV dose arm have completed 1 cycle of therapy (30 days) in this dose arm and there is an acceptable incidence rate of VTE in this dose arm at that time (less than 3), enrollment into the 500 mg Compound IV dose arm (25 subjects) is commenced.
# 125 mg Compound IV, 250 mg Compound IV, or 500 mg Compound IV will be administered daily to all subjects in the study until they have developed serum PSA progression (serum PSA has increased at least 25% and 2 ng/mL above the nadir at two successive sample times after initiation of treatment with Compound IV).
# Assessments of serum total testosterone, serum free testosterone, serum SHGB and serum PSA concentrations are made on Days 15, 30, and every 30 days until their serum PSA has increased at least 25% and 2 ng/mL from the nadir at two successive sample times after initiation of treatment with Compound IV. Bone turnover markers are assessed at baseline (Day 1), Day 90, and End of Study.
# The incidence and frequency of hot flashes is assessed at baseline (Day 1), Day 30, Day 60, Day 90 and End of Study.
# The proportion of subjects with a 50% decline from baseline in serum PSA (confirmed by a second serum PSA assessment 30 days later) by Day 90 (with follow up confirmation by Day 120) […]
# [1] = 250 mg, 11 evaluable patients (FIG. 61)
# [2] = Study 6, 125 mg, 20 evaluable patients
# [3] = Study 6, 125 mg, 21 evaluable patients
# [4] = Study 6, 125 mg, mCRPC on ADT, Day 90, N 20
# [5] = Study 6, 125 mg, mCRPC on ADT, N 20
# [6] = Study 6, 125 mg, patients with hot flashes at baseline
# [7] = Study 6, 125 mg, patients with no hot flashes at baseline
compound,measurement,setting,value
"O=C(c1ccc(O)c(F)c1)N(c1ccc(O)cc1)c1ccc(F)cc1 [Compound IV, 3-fluoro-N-(4-fluorophenyl)-4-hydroxy-N-(4-hydroxyphenyl)benzamide]",Deep vein thrombosis events (DVTs),125 mg,No deep vein thrombosis events (DVTs) have been reported
same,Evaluable patients with improvements in hot flash frequency or severity,125 mg,33%
same,Evaluable patients with reductions in CTX,125 mg,60%
same,Evaluable patients with reductions in bone specific alkaline phosphatase,125 mg,52%
same,Men that do not respond and have continually increasing PSA levels,125 mg,6
same,Patients reporting a PSA decrease in response to therapy,125 mg,24 patients
same,Patients with maximum free T reductions greater than 50% from baseline,125 mg,24 of 30
same,Patients with reductions in free T,125 mg,27 of 30
same,SAEs or VTEs,125 mg,no SAEs or VTEs
same,Subjects with decreased collagen C-telopeptide (CTX),125 mg,69%
same,Subjects with ≧50% decrease in PSA level,125 mg,11%
same,Patients with free T >0.7 pg/ml (Day 1) that go to <0.7 pg/mL,125 mg cohort,22/25
same,Patients with total T >20 ng/dL (Day 1) that do NOT go to <20 ng/dL,125 mg cohort,0/3
same,Patients with total T >20 ng/dL (Day 1) that go to <20 ng/dL,125 mg cohort,3/3
same,Patients with improvement in both frequency and severity of hot flashes,"125 mg, 18 evaluable patients",22%
same,Patients with improvement of frequency or severity and stability of the other measurement,"125 mg, 18 evaluable patients",11%
same,Patients with stability in frequency and severity of hot flashes,"125 mg, 18 evaluable patients",50%
same,Patients with worsening of either frequency or severity of hot flashes,"125 mg, 18 evaluable patients",17%
same,SHBG level relative to Day 0 in all treated men,"125 mg, at least 90 days, initial 15 patients",≥ 150 % of Day 0
same,Men with suboptimal castration (free T>0.7 pg/ml) that became optimally castrated,"125 mg, by day 90, initial 15 patients",91%
same,Treated men with improvement and stability of bone turnover markers,"125 mg, initial group, 11 evaluable subjects",at least 73%
same,Patients with >45% decrease in PSA,"125 mg, prior to day 90, initial 15 patients",4/15 and 4
same,Subjects with any level of PSA decline,250 mg,85%
same,Subjects with decreased collagen C-telopeptide (CTX),250 mg,81%
same,Subjects with ≧50% decrease in PSA level,250 mg,30%
same,Patients with free T >0.7 pg/ml (Day 1) that go to <0.7 pg/mL,250 mg cohort,9/10
same,Patients with total T >20 ng/dL (Day 1) that do NOT go to <20 ng/dL,250 mg cohort,0/4
same,Patients with total T >20 ng/dL (Day 1) that go to <20 ng/dL,250 mg cohort,4/4
same,Reported drug related serious adverse events (SAE),250 mg daily,one
same,Subjects that reported adverse events (AE's),250 mg daily,seven
same,Median SHBG level,"250 mg daily, initial 20 patients, 90 days",297 % of baseline
same,SAE possibly drug related,"250 mg daily, patient required hospitalization",Phlebothrombosis-Grade 3
same,Patients stable in both hot flash measurements,[1],45%
same,Patients with improvement in both/either frequency and severity of hot flashes,[1],36%
same,"Bone turnover (CTX) decreased (improved), share of subjects","Study 6, 125 mg cohort",69% are decreased
same,"SHBG, median (of baseline)","Study 6, 125 mg cohort",Median - 158%
same,PSA response: subjects with ≧50% decrease in PSA,"Study 6, 125 mg cohort, 4/38",4/38 ≧ 50% (11%)
same,"Hot flashes improved, in men experiencing them on Day 1","Study 6, 125 mg cohort, 7/24",7/24 improved (29%)
same,"Hot flashes stable, in men experiencing them on Day 1","Study 6, 125 mg cohort, 12/24",12/24 stable (50%)
same,"CTx decreased, # of patients (%)",[2],12/20 (60%)
same,"CTx increased, # of patients (%)",[2],5/20 (25%)
same,"CTx unchanged, # of patients (%)",[2],3/20 (15%)
same,"BSAP decreased, # of patients (%)",[3],11/21 (52%)
same,"BSAP increased, # of patients (%)",[3],8/21 (38%)
same,"BSAP unchanged, # of patients (%)",[3],2/21 (10%)
same,Adverse event frequency (%): Bone pain,"Study 6, 125 mg, 34 subjects",3 (9%)
same,Adverse event frequency (%): Gynecomastia (grade 2),"Study 6, 125 mg, 34 subjects",4 (12%)
same,Adverse event frequency (%): Gynecomastia/breast tenderness (grade 1),"Study 6, 125 mg, 34 subjects",4 (12%)
same,Adverse event frequency (%): Loss of appetite,"Study 6, 125 mg, 34 subjects",3 (9%)
same,Adverse event frequency (%): Nausea,"Study 6, 125 mg, 34 subjects",2 (6%)
same,Adverse event frequency: VTE,"Study 6, 125 mg, 34 subjects",0
same,"Free testosterone level, mean",[4],0.57 pg/mL
same,"Free testosterone level, median",[4],0.45 pg/mL
same,"Free testosterone, % change from baseline to Day 90, median",[5],−57.14%
same,"Free testosterone, change from baseline to Day 90, median",[5],-0.50 pg/mL
same,"Free testosterone, change from baseline to Day 90, mean","Study 6, 125 mg, mCRPC on ADT, N 20, P 0.0002",-0.74 pg/mL
same,"Free testosterone, % change from baseline to Day 90, mean","Study 6, 125 mg, mCRPC on ADT, N 20, P 0.0035",−34.59%
same,"Change in hot flashes (frequency, severity): (Better, Better), % of patients",[6],18.75%
same,"Change in hot flashes (frequency, severity): (Better, Stable), % of patients",[6],18.75%
same,"Change in hot flashes (frequency, severity): (Better, Worse), % of patients",[6],6.25%
same,"Change in hot flashes (frequency, severity): (Stable, Stable), % of patients",[6],37.50%
same,"Change in hot flashes (frequency, severity): (Stable, Worse), % of patients",[6],6.25%
same,"Change in hot flashes (frequency, severity): (Worse, Worse), % of patients",[6],12.50%
same,"Change in hot flashes (frequency, severity): (Stable, Stable), % of patients",[7],77.78%
same,"Change in hot flashes (frequency, severity): (Worse, Worse), % of patients",[7],22.22%
same,"SHBG, mean (of baseline)","Study 6, 250 mg cohort",Mean - 294%
same,"SHBG, median (of baseline)","Study 6, 250 mg cohort",Median - 297%
same,"Hot flashes improved, in men experiencing them on Day 1","Study 6, 250 mg cohort, 4/11",4/11 improved (36%)
same,"Hot flashes stable, in men experiencing them on Day 1","Study 6, 250 mg cohort, 5/11",5/11 stable (45%)
same,PSA response: subjects with ≧50% decrease in PSA,"Study 6, 250 mg cohort, 6/20, Day 90",6/20 ≧ 50% (30%)
same,"Bone turnover (CTX) decreased (improved), share of subjects","Study 6, 250 mg cohort, 13/16",13/16 (81%) are
same,"Reported adverse event: Bilateral Breast Tenderness, grade","Study 6, 250 mg daily",Grade 1
same,"Reported adverse event: Diarrhea, grade","Study 6, 250 mg daily",Grade 1
same,"Reported adverse event: Gynecomastia, grade","Study 6, 250 mg daily",Grade 2
same,"Reported adverse event: Nipple Pain, grade","Study 6, 250 mg daily",Grade 1
same,"Reported adverse event: Nipple Tenderness, grade","Study 6, 250 mg daily",Grade 1
same,"Reported adverse event: Sensitivity of Mammila, grade","Study 6, 250 mg daily",Grade 1

# Reference: patent US9624161B2 (priority 2009, dated 2017)
